Source: PubChem BioAssay (NCI)
“And” between values parts separate entries of the source, which are not always exact repeats. Equal entries are not always repeated.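 Assay format: 96-well plates, 48-hour exposure. GI50 marks 50% less growth. TGI denotes the concentration required for complete inhibition of growth.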

What was measured:
Test in all cases: DTP human tumour cell line panel, 48 h
DMS 273 small cell lung = test system: DMS 273 small cell lung
RXF-631 renal = test system: RXF-631 renal
LXFL 529 NSCLC = test system: LXFL 529 NSCLC

SMILES	TGI (DMS 273 small cell lung)	TGI (RXF-631 renal) [µM]	TGI (LXFL 529 NSCLC) [µM]	GI50 (DMS 273 small cell lung) [µM]
Cc1[nH]c(=O)[nH]c(=O)c1/C=C/C(=O)NC(CO)CS(=O)CS(C)=O (stereo not given)	117 µM			
COc1ccc(-c2nc3c(nc2-c2ccc(OC)cc2)C(N)=NS(=O)(=O)N3)cc1	> 100 µM	> 100		
CSc1nc(CO)c(CO)n1C	> 100 µM			
Nc1ccc(O)c2c1C(=O)c1c(N)ccc(O)c1C2=O	> 100 µM		> 100	
O=C(NC(Cc1ccc(Br)cc1)C(=O)O)c1ccc(I)cc1 (stereo not given)	> 100 µM			
CC1C(=O)CC(c2cccs2)N(N=O)C1c1cccs1 (stereo not given)	> 100 µM			
CN(C)CCNC(=O)c1cc(Cl)cc2cc3ccccc3nc12	2.71 µM			
CC[C@@]1(O)C(=O)OCc2c1cc1n(c2=O)Cc2cc3ccccc3nc2-1	0.385 µM		3.54	
CCN(CC)CC[n+]1ccc2c(C)c3[nH]c4ccc(O)cc4c3c(C)c2c1	19.6 µM and 20.7 µM		20	1.93
COC(=O)C1=C(C)N2CCSC2(C)C(C(=O)OC)C1c1cccc(Cl)c1 (stereo not given)			72.5	
